Target: T1, Bcl-2-like protein 2 (Homo sapiens, UniProt Q92843)
T1 sequence (Q92843 whole entry): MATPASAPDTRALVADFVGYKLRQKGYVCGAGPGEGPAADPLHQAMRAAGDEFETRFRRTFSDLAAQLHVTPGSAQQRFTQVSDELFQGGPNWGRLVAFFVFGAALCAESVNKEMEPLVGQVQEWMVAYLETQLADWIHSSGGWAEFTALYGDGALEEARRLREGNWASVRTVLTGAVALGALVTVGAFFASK
Test: Bcl-W/Bim complex disruptors – biochemical, multiplexed, bead-based flow cytometry, HTS hits, confirmation (AID 2081)

[1] = inactive by the depositor's call

SMILES	EC50 [1] [µM]	EC50 [µM]
O=C(/C=C/c1ccc(-c2ccccc2[N+](=O)[O-])o1)c1ccccc1	21.2	
CCOc1ccccc1CNc1ccc(O)cc1	26	
O=C(NCc1ccccc1)c1ccc2nc(-c3ccco3)c(-c3ccco3)nc2c1 [2,3-bis(furan-2-yl)-N-(phenylmethyl)quinoxaline-6-carboxamide]	11.4	
Cc1nnc(Sc2cc(NCCO)c([N+](=O)[O-])c3nonc23)s1 [2-[[7-[(5-methyl-1,3,4-thiadiazol-2-yl)thio]-4-nitro-2,1,3-benzoxadiazol-5-yl]amino]ethanol]		1.31
CNC1CCC(Br)CC(C(=O)C=Cc2cccc(OC)c2OC)C1=O (configuration not stated) [4-bromo-2-[(E)-3-(2,3-dimethoxyphenyl)-1-oxoprop-2-enyl]-7-(methylamino)-1-cycloheptanone]	47.3	
COc1cc(/N=C2\SSNC2Cl)c(OC)cc1Cl (configuration not stated) [4-chloro-N-(4-chloro-2,5-dimethoxyphenyl)-5-dithiazolidinimine]	23	
Clc1nc(NCc2cccnc2)nc(N2CCOCC2)n1 [MLS000121154]	15.5	
CC(=O)OCCCNc1cc(Sc2nc3ccccc3s2)c2nonc2c1[N+](=O)[O-] [MLS000521052]		0.62
COc1ccc(CCNC(=O)c2ccc3nc(-c4ccco4)c(-c4ccco4)nc3c2)cc1OC [N-[2-(3,4-dimethoxyphenyl)ethyl]-2,3-di-2-furylquinoxaline-6-carboxamide]	20.8	
COc1ccccc1NC1=C(NC(C)=O)C(=O)c2ccccc2C1=O [N-[3-(2-methoxyanilino)-1,4-dioxonaphthalen-2-yl]acetamide]		3.35
Cc1cc2nn(-c3cccc4ccccc34)nc2cc1N [SMR000076237]		2.64
Oc1ccc(NCc2ccccc2OCc2ccccc2)cc1 [SMR000231540]	20.5	
